Data reported in patent US20080051284A1, “Fungicidal Mixtures for Controlling Rice Pathogens” (BASF AKTIENGESELLSCHAFT, priority 2003, published 2008).

System: Corticium sasakii
Experiment: Activity against sheath blight on rice caused by Corticium sasakii (protective spray, rice plants cultivar Tai-Nong 67)
Assay type: in vivo
Settings: individual active compound, 11 days after infection
Procedure: The active compounds, separately or jointly, were prepared as a stock solution with 0.25% by weight of active compound in acetone or DMSO. 1% by weight of the emulsifier Uniperol® EL (wetting agent having emulsifying and dispersing action based on ethoxylated alkylphenols) was added to this solution, and the solution was diluted with water to the desired concentration.
Use Example—Activity Against Sheath Blight on Rice Caused by Corticium sasakii
Pots of rice plants of the cultivar “Tai-Nong 67” were sprayed to runoff point with an aqueous suspension having the concentration of active compound stated below. The next day, oat grains infected with Corticium sasakii were placed into the pots (in each case 5 grains per pot). The plants were then placed in a chamber at 26° C. and maximum atmospheric humidity. After 11 days, the sheath blight on the untreated but infected control plants had developed to such an extent that the infection could be determined visually in %.
Evaluation is carried out by determining the infected leaf areas in percent. These percentages were converted into efficacies.
The efficacy (E) is calculated as follows using Abbot's formula:
E=(1−α/β)·100 • α corresponds to the fungicidal infection of the treated plants in % and • β corresponds to the fungicidal infection of the untreated (control) plants in %
An efficacy of 0 means that the infection level of the treated plants corresponds to that of the untreated control plants; an efficacy of 100 means that the treated plants are not infected.
The expected efficacies of the mixtures of active compounds are determined using Colby's formula [R. S. Colby, Weeds 15, 20-22 (1967)] and compared with the observed efficacies.
E=x+y−x·y/100 • E expected efficacy, expressed in % of the untreated control, when using the mixture of the active compounds A and B at the concentrations a and b • x efficacy, expressed in % of the untreated control, when using active compound A at the concentration a • y efficacy, expressed in % of the untreated control, when using active compound B at the concentration b

| SMILES | Efficacy in % of the untreated control (4 ppm in the spray liquor) | Efficacy in % of the untreated control (1 ppm in the spray liquor) | Efficacy in % of the untreated control (16 ppm in the spray liquor) |
| --- | --- | --- | --- |
| CC1CCN(c2c(-c3c(F)cccc3Cl)c(Cl)nc3ncnn23)CC1 [A] | 12% |  |  |
| N#Cc1c(Cl)c(Cl)c(Cl)c(C#N)c1Cl [II, 2,4,5,6-tetrachloroisophthalonitrile] | 0% | 0% | 0% |
| CC(Nc1c(-c2c(F)cc(F)cc2F)c(Cl)nc2ncnn12)C(F)(F)F (stereo not drawn) [B] | 56% |  |  |
| CC1CCN(c2c(-c3c(F)cc(F)cc3F)c(Cl)nc3ncnn23)CC1 [I, 5-chloro-7-(4-methylpiperidin-1-yl)-6-(2,4,6-trifluorophenyl)-[1,2,4]tri-azolo[1,5-a]pyrimidine] | 34% |  |  |
